Laboratory results published in PubChem BioAssay (NCI).
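Where inhibition never reached the appropriate level, the endpoint shown equals the highest concentration tested. Otherwise, values were interpolated linearly from a five-concentration, 48-hour dose response in 96-well plates. GI50 is the concentration that inhibits growth by half. TGI marks complete inhibition of growth.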

Key:
Assay in all cases: NCI-60 cell line screen, 48 h
[1] = system: CCRF-CEM leukemia
[2] = system: T-47D breast
[3] = system: MOLT-4 leukemia
[4] = system: RPMI-8226 leukemia
[5] = system: K-562 leukemia
[6] = system: HL-60(TB) leukemia
[7] = system: HT29 colon
[8] = system: LOX IMVI melanoma
[9] = system: SR leukemia
[10] = system: NCI/ADR-RES ovarian
[11] = system: SNB-75 CNS
[12] = system: SK-MEL-28 melanoma
[13] = system: NCI-H460 lung
[14] = system: SF-539 CNS
[15] = system: COLO 205 colon
[16] = system: CAKI-1 renal
[17] = system: M14 melanoma
[18] = system: OVCAR-4 ovarian
[19] = system: UACC-257 melanoma
[20] = system: SF-268 CNS
[21] = system: OVCAR-5 ovarian
[22] = system: HCT-15 colon
[23] = system: MALME-3M melanoma
[24] = system: SF-295 CNS
[25] = system: BT-549 breast
[26] = system: ACHN renal
[27] = system: U251 CNS
[28] = system: 786-0 renal
[29] = system: UO-31 renal
[30] = system: NCI-H23 lung
[31] = system: DU-145 prostate
[32] = system: MDA-MB-231 breast
[33] = system: SW-620 colon
[34] = system: HCT-116 colon
[35] = system: NCI-H226 lung
[36] = system: A549 NSCLC
[37] = system: MCF7 breast
[38] = system: HOP-62 NSCLC
[39] = system: IGROV1 ovarian
[40] = system: HCC-2998 colon
[41] = system: HOP-92 NSCLC
[42] = system: TK-10 renal
[43] = system: SN12C renal
[44] = system: PC-3 prostate
[45] = system: NCI-H522 lung
[46] = system: HS 578T breast
[47] = system: UACC-62 melanoma
[48] = system: SNB-19 CNS
[49] = system: SK-MEL-2 melanoma
[50] = system: EKVX NSCLC
[51] = system: KM12 colon
[52] = system: MDA-MB-435
[53] = system: OVCAR-8 ovarian
[54] = system: SK-OV-3 ovarian
[55] = system: A498 renal
[56] = system: RXF 393 renal
[57] = system: SK-MEL-5 melanoma

Compound: C=C(C=O)[C@@H]1CC[C@]2(C)[C@H](C(=O)C=C3[C@H]4C[C@](C)(C(=O)OC)CC[C@]4(C)CC[C@]32C)[C@@]1(C)CCC#N
- GI50 [1]: 483 nM
- TGI [1]: > 100000 nM
- GI50 [2]: 899 nM
- TGI [2]: > 100000 nM
- GI50 [3]: 985 nM
- TGI [3]: > 100000 nM
- GI50 [4]: 942 nM
- TGI [4]: 5040 nM
- GI50 [5]: 1810 nM
- TGI [5]: > 100000 nM
- GI50 [6]: 1720 nM
- TGI [6]: 5930 nM
- GI50 [7]: 1120 nM
- TGI [7]: 2870 nM
- GI50 [8]: 1340 nM
- TGI [8]: 2700 nM
- GI50 [9]: 1020 nM
- TGI [9]: > 100000 nM
- GI50 [10]: 1880 nM
- TGI [10]: 5920 nM

Compound: CSc1ccc(/C(=N/N=C(N)N)c2ccccc2)cc1
- GI50 [11]: 310 nM
- TGI [11]: 3270 nM
- GI50 [12]: 1070 nM
- TGI [12]: 20000 nM
- GI50 [13]: 361 nM
- TGI [13]: 10700 nM
- GI50 [14]: 301 nM
- TGI [14]: 931 nM
- GI50 [15]: 235 nM
- TGI [15]: 549 nM
- GI50 [1]: 357 nM
- TGI [1]: 19200 nM
- GI50 [2]: 535 nM
- TGI [2]: 15100 nM
- GI50 [3]: 462 nM
- TGI [3]: 13400 nM
- GI50 [16]: 423 nM
- TGI [16]: 10900 nM
- GI50 [17]: 308 nM
- TGI [17]: 1420 nM
- GI50 [18]: 5290 nM
- TGI [18]: 27200 nM
- GI50 [19]: 1080 nM
- TGI [19]: 11800 nM
- GI50 [20]: 1290 nM
- TGI [20]: 16100 nM
- GI50 [4]: 391 nM
- TGI [4]: 5460 nM
- GI50 [21]: 571 nM
- TGI [21]: 15400 nM
- GI50 [22]: 377 nM
- TGI [22]: 12000 nM
- GI50 [23]: 719 nM
- TGI [23]: 13500 nM
- GI50 [24]: 350 nM
- TGI [24]: 11500 nM
- GI50 [25]: 650 nM
- TGI [25]: 3180 nM
- GI50 [26]: 695 nM
- TGI [26]: 12600 nM
- GI50 [27]: 393 nM
- TGI [27]: 11300 nM
- GI50 [28]: 924 nM
- TGI [28]: 15800 nM
- GI50 [29]: 747 nM
- TGI [29]: 12600 nM
- GI50 [5]: 314 nM
- TGI [5]: 11500 nM
- GI50 [30]: 591 nM
- TGI [30]: 14900 nM
- GI50 [6]: 274 nM
- TGI [6]: 883 nM
- GI50 [31]: 471 nM
- TGI [31]: 13300 nM
- GI50 [32]: 498 nM
- TGI [32]: 11800 nM
- GI50 [33]: 435 nM
- TGI [33]: 15600 nM
- GI50 [34]: 330 nM
- TGI [34]: 11400 nM
- GI50 [35]: 848 nM
- TGI [35]: 18600 nM
- GI50 [36]: 984 nM
- TGI [36]: 14200 nM
- GI50 [37]: 357 nM
- TGI [37]: 9460 nM
- GI50 [38]: 481 nM
- TGI [38]: 13000 nM
- GI50 [39]: 563 nM
- TGI [39]: 12200 nM
- GI50 [7]: 301 nM
- TGI [7]: 2880 nM
- GI50 [40]: 371 nM
- TGI [40]: 1570 nM
- GI50 [41]: 409 nM
- TGI [41]: 5320 nM
- GI50 [8]: 520 nM
- TGI [8]: 8780 nM
- GI50 [42]: 4430 nM
- TGI [42]: 20400 nM
- GI50 [43]: 536 nM
- TGI [43]: 12500 nM
- GI50 [9]: 247 nM
- TGI [9]: 2580 nM
- GI50 [44]: 383 nM
- TGI [44]: 10900 nM
- GI50 [45]: 267 nM
- TGI [45]: 996 nM
- GI50 [46]: 359 nM
- TGI [46]: 12900 nM
- GI50 [47]: 473 nM
- TGI [47]: 15000 nM
- GI50 [48]: 439 nM
- TGI [48]: 14000 nM
- GI50 [49]: 391 nM
- TGI [49]: 12700 nM
- GI50 [50]: 779 nM
- TGI [50]: 18100 nM
- GI50 [51]: 451 nM
- TGI [51]: 14200 nM
- GI50 [52]: 207 nM
- TGI [52]: 478 nM
- GI50 [53]: 422 nM
- TGI [53]: 11200 nM
- GI50 [10]: 1870 nM
- TGI [10]: 11000 nM
- GI50 [54]: 605 nM
- TGI [54]: 15100 nM
- GI50 [55]: 319 nM
- TGI [55]: 1660 nM
- GI50 [56]: 282 nM
- TGI [56]: 781 nM
- GI50 [57]: 609 nM
- TGI [57]: 2850 nM
